Like-named read-outs stand apart in the source and are kept apart here.
Assays:
[1] = system: Chinese hamster cells line V-79; test: Radiosensitization (enhancement ratio, cobalt-60 irradiation of hypoxic cells); format: cell-based
Procedure: (§1) Asynchronous monolayers of cultures of Chinese hamster cells line V-79 were employed in all experiments. The monolayers were derived from exponentially growing cultures. Methods of culturing and handling have been reported earlier by Cooke et al, Rad. Res. 65, 152 (1976). The plated cultures were rendered hypoxic in sealed dural containers capable of holding seven petri dishes, by purging with nitrogen (oxygen-free grade) for one hour. Irradiation was carried out by using a cobalt-60 source at a dose rate of approximately 240 rad/min according to the procedure described by Agrawal et al Rad. Res. 78:532 (1979). A dose of 1400 rad was given to hypoxic cells in glass petri dishes in the presence of a given drug concentration (2000 cells/dish). Cell survival was estimated from unirradiated toxic hypoxic cells exposed to the same drug concentration. Complete survival curves were obtained for each compound at the radiation doses of 400 to 3000 rad. The Do value was calculated for each compound and the ratio of the Do value for the hypoxic control cells to the Do value of the hypoxic drug treated cells provided the sensitized enhancement ratio of the corresponding agent.
(§2) Cultures were incubated for 6 days at 37° C. in an atmosphere of 5% CO2. The resulting colonies were fixed in absolute ethanol and stained with methylene blue and counted.

[2] = In vitro cytotoxicity in oxic cells (% survival); format: cell-based, Chinese hamster; details: hamster, v-79 cells, oxic; for viability at 2 h, 1000 µM: 1.0 mM; for viability at 2 h, 5000 µM: 5.0 mM
Procedure: as §1, §2
(§3) To determine toxicity in vitro, glass petri dishes containing approximately 200 Chinese hamster cells/dish were exposed to a range of concentrations of each drug for 2 hours and/or 4 hours at 37° C. Drug concentrations between 10 μM and 0.5 mM were employed initially.

hypoxic tumor cells = details: cited from earlier work
[3] = In vitro cytotoxicity in hypoxic cells (% survival); format: cell-based, Chinese hamster; details: hamster, v-79 cells; for viability at 2 h, 50 µM / viability at 4 h, 50 µM: 0.05 mM; for viability at 2 h, 100 µM / viability at 4 h, 100 µM: 0.1 mM; for viability at 2 h, 250 µM / viability at 4 h, 250 µM: 0.25 mM
Procedure: as §1, §2, §3

[4] = Pharmacokinetics, localization in tissue in mice bearing B16 melanoma; format: in vivo, mouse (C57/BL); details: for concentration at 0.5 h / concentration at 1 h / Kp at 0.5 h / Kp at 1 h: mouse, ip, 1000 mg/kg; for concentration at 0.5 h / concentration at 1 h: 1 g/kg intraperitoneal
Procedure: The drug solution was made in normal saline at a concentration of 50 mg/ml. The drug solution was injected intraperitoneally at a dose level of 1 g/kg to C57/BL mice bearing 15 day old B16 melanoma tumor. At 30 and 60 minute interval after the drug administration, mice were anesthetized, blood sample was taken directly by heart puncture and tumor and brain tissue were removed. Plasma was separated after centrifugation of the whole blood and extracted with methanol. Brain and tumor tissue were homogenized and also extracted with methanol. The methanol extracts were analyzed by reverse phase high-performance liquid chromatography employing 25% methanol as mobile phase. The peak was detected at 320 nm with a retention time of 2.3 min. The flow rate was 2 ml/min.

[5] = system: Chinese hamster cells line V-79 (oxic); test: In vitro cytotoxicity in oxic cells (% survival); format: cell-based; details: 2 hours
Procedure: as §1, §2, §3

[6] = system: hypoxic cells (Chinese hamster cells line V-79); test: Differential toxicity to hypoxic cells at 4 hours; format: cell-based
Procedure: as §1, §3

[7] = 2 hours, 0.1 mM, read-out: In vitro cytoxicity in oxic cells (% survival at 2 hours)
[8] = 2 hours, 0.5 mM, read-out: In vitro cytoxicity in oxic cells (% survival at 2 hours)
[9] = 2 hours, read-out: In vitro cytoxicity in oxic cells (% survival at 2 hours)
[10] = 2 hours, read-out: In vitro cytoxicity in hypoxic cells (% survival at 2 hours)
[11] = 4 hours, 0.01 mM, read-out: In vitro cytoxicity in hypoxic cells (% survival at 4 hours)
[12] = 4 hours, read-out: In vitro cytoxicity in hypoxic cells (% survival at 4 hours)

In the case of `O=[N+]([O-])c1nccn1C1O[C@H](CO)[C@@H](O)[C@@H]1O` (stereo partly drawn) [D, 1(D-Arabinofuranosyl)-2-nitroimidazole], the “Radiosensitization (enhancement ratio in Chinese hamster cells)” value ([1]; 1.0 mM) is reported as 1.7, the viability at 2 h, 100 µM [2, 7] is reported as 105% and the viability at 2 h, 500 µM [2, 8] is reported as 104%. For the same molecule, the viability at 2 h, 1000 µM [2, 9] was 99% and the viability at 2 h, 5000 µM [2, 9] was 116%.

In the case of `O=c1[nH]c(=O)n([C@H]2C[C@H](O)[C@@H](CO)O2)cc1F` [5-flourodeoxyuridine], the “selectivity for tumor cells” value (hypoxic tumor cells) is given as “poor selectivity”.

In the case of `O=C(OC[C@H]1O[C@@H](n2ccnc2[N+](=O)[O-])[C@@H](OC(=O)c2ccccc2)[C@@H]1OC(=O)c1ccccc1)c1ccccc1` [F, 1(2',3',5tri-O--benzoylD-arabinofuranosyl)-2-nitroimidazole], the “Radiosensitization (enhancement ratio in Chinese hamster cells)” value ([1]; 0.1 mM) is reported as 1.1, the viability at 2 h, 10 µM ([3]; 2 hours, 0.01 mM, read-out: In vitro cytoxicity in hypoxic cells (% survival at 2 hours)) is reported as 102% and the viability at 2 h, 50 µM [3, 10] is reported as 102%. The viability at 2 h, 100 µM [3, 10] was 97%, the viability at 2 h, 250 µM [3, 10] was 105% and the viability at 4 h, 10 µM [3, 11] was 103%. The viability at 4 h, 50 µM [3, 12] was 104%, the viability at 4 h, 100 µM [3, 12] was 89% and the viability at 4 h, 250 µM [3, 12] was 73%.

With `O=[N+]([O-])c1nccn1[C@@H]1C=C[C@H](O)[C@@H](CO)O1` [1-(2',3'-didehydro-2',3'-dideoxy-α-D-erythro-hexopyranosyl)-2-nitroimidazole] the “tumor concentration relative to brain (Tumor/Brain ratio)” value ([4]; 30 and 60 min) was “approximately 3 fold”, the “Ratio of Brain/Plasma, change with time” value ([4]; 30 to 60 min) was “increased with time” and the “Ratio of Tumor/Plasma, change with time” value ([4]; 30 to 60 min) was “increased with time”. For the same molecule, the “Ratio of Tumor/Brain” value ([4]; 30 min) was 2.87, the “Ratio of Tumor/Brain” value ([4]; 60 min) was 2.88 and the concentration at 0.5 h ([4]; b16 melanoma tumor, tumor, 30 min, read-out: (B16 melanoma)) was 293000 ng/g. It also gave a concentration at 1 h ([4]; b16 melanoma tumor, tumor, 60 min, read-out: (B16 melanoma)) of 346000 ng/g, a concentration at 0.5 h ([4]; brain, 30 min, read-out: Brain) of 102000 ng/g and a concentration at 1 h ([4]; brain, 60 min, read-out: Brain) of 120000 ng/g. It also gave a Kp at 0.5 h ([4]; brain/plasma, 30 min, read-out: Ratio of Brain/Plasma) of 0.097, a Kp at 1 h ([4]; brain/plasma, 60 min, read-out: Ratio of Brain/Plasma) of 0.18 and a concentration at 0.5 h ([4]; plasma, 30 min, read-out: Plasma) of 1050 µg/mL. It also gave a concentration at 1 h ([4]; plasma, 60 min, read-out: Plasma) of 648 µg/mL, a Kp at 0.5 h ([4]; tumor/plasma, 30 min, read-out: Ratio of Tumor/plasma) of 0.278 and a Kp at 1 h ([4]; tumor/plasma, 60 min, read-out: Ratio of Tumor/plasma) of 0.534.

For `O=[N+]([O-])c1nccn1C1CCCO1` (stereo not shown) [I, 1-(Tetrahydro-2-furanyl)-2-nitroimidazole], the “Radiosensitization (enhancement ratio in Chinese hamster cells)” value ([1]; 1.0 mM) was 1.6, the viability at 2 h, 100 µM [2, 7] was 98.8% and the viability at 2 h, 500 µM [2, 8] was 101%. For the same molecule, the viability at 2 h, 1000 µM [2, 9] was 87.1% and the viability at 2 h, 5000 µM [2, 9] was 79.5%.

In the case of `O=[N+]([O-])c1nccn1C1CCCCC1O` (stereo not shown) [L, 1-(2-Hydroxycyclohexyl)-2-nitroimidazole], the “Radiosensitization (enhancement ratio in Chinese hamster cells)” value ([1]; 1.0 mM) is reported as 2.0, the viability at 2 h, 100 µM [2, 7] is reported as 98.2% and the viability at 2 h, 500 µM [2, 8] is reported as 90.3%. The viability at 2 h, 1000 µM [2, 9] was 86%.

With `O=[N+]([O-])c1nccn1C1C[C@H](O)[C@@H](CO)O1` (stereo partly drawn) [G, 1(2-deoxy-D-erythro-pentofuranosyl)-2-nitroimidazole] the “Radiosensitization (enhancement ratio in Chinese hamster cells)” value ([1]; 1.0 mM) was 1.9, the viability at 2 h, 100 µM [2, 7] was 95.3% and the viability at 2 h, 500 µM [2, 8] was 88.9%. It also gave a viability at 2 h, 1000 µM [2, 9] of 93% and a viability at 2 h, 5000 µM [2, 9] of 82.4%.

For `O=[N+]([O-])c1nccn1COCCO` [M, 1-[(2-hydroxyethoxy)methyl]-2-nitroimidazole], the “Radiosensitization (enhancement ratio in Chinese hamster cells)” value ([1]; 1.0 mM) was 2.1, the viability at 2 h, 100 µM [2, 7] was 99.5% and the viability at 2 h, 500 µM [2, 8] was 106%. For the same molecule, the viability at 2 h, 1000 µM [2, 9] was 104%.

With `O=C(OC[C@H]1O[C@H](n2ccnc2[N+](=O)[O-])[C@@H](OC(=O)c2ccccc2)[C@@H]1OC(=O)c1ccccc1)c1ccccc1` [E, 1(2',3',5tri-O--benzoylD-arabinofuranosyl)-2-nitroimidazole] the “Radiosensitization (enhancement ratio in Chinese hamster cells)” value ([1]; 0.05 (mM not given)) was 1.0, the viability at 2 h, 50 µM [3, 10] was 84% and the viability at 2 h, 250 µM [3, 10] was 12%. It also gave a viability at 4 h, 10 µM [3, 11] of 80%, a viability at 4 h, 50 µM [3, 12] of 76% and a viability at 4 h, 100 µM [3, 12] of 46%. For the same molecule, the viability at 4 h, 250 µM [3, 12] was 2.6%.

With `O=[N+]([O-])c1nccn1C1CCCC1O` (stereo not shown) [K, 1-(2-Hydroxycyclopentyl)-2-nitroimidazole] the “Radiosensitization (enhancement ratio in Chinese hamster cells)” value ([1]; 1.0 mM) was 2.0, the viability at 2 h, 100 µM [2, 7] was 112% and the viability at 2 h, 500 µM [2, 8] was 110%. The viability at 2 h, 1000 µM [2, 9] was 107% and the viability at 2 h, 5000 µM [2, 9] was 94.7%.

In the case of `O=c1[nH]c(=O)n([C@H]2C[C@H](O)[C@@H](CO)O2)cc1Br` [5-bromodeoxyuridine], the “selectivity for tumor cells” value (hypoxic tumor cells) is listed as “poor selectivity”.

For `O=[N+]([O-])c1nccn1C1C[C@H](O)[C@@H](CO)O1` (stereo partly drawn) [H, 1(2-deoxy-D-erythro-pentofuranosyl)-2-nitroimidazole], the “Radiosensitization (enhancement ratio in Chinese hamster cells)” value ([1]; 1.0 mM) was 1.9, the “In vitro cytoxicity in oxic cells (% survival at 2 hours)” value ([5]; 0.1 mM) was 95.3% and the “In vitro cytoxicity in oxic cells (% survival at 2 hours)” value ([5]; 0.5 mM, 120 min, 500 µM) was 94.2%. For the same molecule, the “In vitro cytoxicity in oxic cells (% survival at 2 hours)” value ([5]; 1.0 mM, 120 min, 1000 µM) was 98.2% and the “In vitro cytoxicity in oxic cells (% survival at 2 hours)” value ([5]; 5.0 mM, 120 min, 5000 µM) was 81.3%.

In the case of `O=[N+]([O-])c1nccn1C1CCCCO1` (stereo not shown) [J, 1-(Tetrahydro-2-pyranyl)-2-nitroimidazole], the “Radiosensitization (enhancement ratio in Chinese hamster cells)” value ([1]; 1.0 mM) is reported as 1.7, the viability at 2 h, 100 µM [2, 7] is reported as 106% and the viability at 2 h, 500 µM [2, 8] is reported as 101%. It also gave a viability at 2 h, 1000 µM [2, 9] of 105% and a viability at 2 h, 5000 µM [2, 9] of 94.9%.

For `CC(=O)OC[C@H]1O[C@H](n2ccnc2[N+](=O)[O-])C=C[C@@H]1OC(C)=O` [B, 1(4',6di-O--acetyl2',3didehydro-2',3dideoxy-D-erythro-hexopyranosyl)-2-ni roimidazole], the “Radiosensitization (enhancement ratio in Chinese hamster cells)” value ([1]; 0.5 mM) was 2.0, the viability at 2 h, 10 µM ([2]; 2 hours, 0.01 mM, read-out: In vitro cytoxicity in oxic cells (% survival at 2 hours)) was 106% and the viability at 2 h, 50 µM ([2]; 2 hours, 0.05 mM, read-out: In vitro cytoxicity in oxic cells (% survival at 2 hours)) was 100%. For the same molecule, the viability at 2 h, 100 µM [2, 7] was 103%, the viability at 2 h, 500 µM [2, 8] was 100% and the viability at 4 h, 10 µM ([2]; 4 hours, 0.01 mM, read-out: In vitro cytoxicity in oxic cells (% survival at 4 hours)) was 100%. For the same molecule, the viability at 4 h, 50 µM ([2]; 4 hours, 0.05 mM, read-out: In vitro cytoxicity in oxic cells (% survival at 4 hours)) was 100%, the viability at 4 h, 100 µM ([2]; 4 hours, 0.1 mM, read-out: In vitro cytoxicity in oxic cells (% survival at 4 hours)) was 101% and the viability at 4 h, 500 µM ([2]; 4 hours, 0.5 mM, read-out: In vitro cytoxicity in oxic cells (% survival at 4 hours)) was 102%. The viability at 2 h, 100 µM [3, 10] was 90.9%, the viability at 2 h, 500 µM ([3]; 2 hours, 0.5 mM, read-out: In vitro cytoxicity in hypoxic cells (% survival at 2 hours)) was 100% and the viability at 4 h, 100 µM [3, 12] was 96%. The viability at 4 h, 500 µM ([3]; 4 hours, 0.5 mM, read-out: In vitro cytoxicity in hypoxic cells (% survival at 4 hours)) was 60.3% and the “Differential toxicity to hypoxic cells at 4 hours” value [6] was “Yes”.
